In the CheMixHub viscosity set:

Assay: xn = mol fraction of the nth substance listed

CC(C)CC(C)(C)C + CCCCCC
298.15 K, 101 kPa
Details | viscosity [mPa·s]
x1 = 0.05688 | 0.3093
x1 = 0.1612 | 0.3278
x1 = 0.2742 | 0.3441
x1 = 0.3413 | 0.3538
x1 = 0.4585 | 0.373
x1 = 0.5556 | 0.3897
x1 = 0.6116 | 0.3995
x1 = 0.7348 | 0.4226
x1 = 0.7874 | 0.4329
x1 = 0.852 | 0.4445
x1 = 0.9128 | 0.4582
x1 = 0.9559 | 0.4674
x2 = 0.03385 | 0.484

O=C1CCCCC1 + CC(C)CC(C)(C)C
viscosity [mPa·s]
Details | 293.15 K | 298.15 K | 303.15 K | 308.15 K | 313.15 K
101 kPa, x1 = 0.0911 | 0.5562 | 0.5245 | 0.497 | 0.4702 | 0.4465
101 kPa, x1 = 0.127 | – | 0.551 | – | – | –
101 kPa, x1 = 0.1761 | 0.6094 | 0.5717 | 0.5392 | 0.5101 | 0.4831
101 kPa, x1 = 0.1855 | – | 0.575 | – | – | –
101 kPa, x1 = 0.3071 | – | 0.643 | – | – | –
101 kPa, x1 = 0.3304 | 0.7148 | 0.6685 | 0.6303 | 0.5925 | 0.5593
101 kPa, x1 = 0.4005 | 0.7809 | 0.729 | 0.6869 | 0.643 | 0.6047
101 kPa, x1 = 0.4354 | – | 0.741 | – | – | –
101 kPa, x1 = 0.5171 | – | 0.836 | – | – | –
101 kPa, x1 = 0.5288 | 0.9379 | 0.8709 | 0.8135 | 0.7598 | 0.7134
101 kPa, x1 = 0.5877 | 1.037 | 0.9596 | 0.8935 | 0.8326 | 0.7791
101 kPa, x1 = 0.6149 | – | 0.969 | – | – | –
101 kPa, x1 = 0.6961 | 1.231 | 1.132 | 1.046 | 0.969 | 0.9139
101 kPa, x1 = 0.7054 | – | 1.114 | – | – | –
101 kPa, x1 = 0.7937 | 1.479 | 1.353 | 1.248 | 1.152 | 1.07
101 kPa, x1 = 0.7982 | – | 1.317 | – | – | –
101 kPa, x1 = 0.8836 | – | 1.526 | – | – | –
101 kPa, x1 = 0.9232 | 1.947 | 1.771 | 1.628 | 1.49 | 1.368
101.33 kPa, x1 = 0.103 | – | 0.514 | 0.485 | 0.458 | –
101.33 kPa, x1 = 0.2023 | – | 0.563 | 0.53 | 0.501 | –
101.33 kPa, x1 = 0.3 | – | 0.626 | 0.589 | 0.556 | –
101.33 kPa, x1 = 0.4044 | – | 0.717 | 0.667 | 0.623 | –
101.33 kPa, x1 = 0.5041 | – | 0.808 | 0.751 | 0.702 | –
101.33 kPa, x1 = 0.6035 | – | 0.932 | 0.865 | 0.805 | –
101.33 kPa, x1 = 0.7029 | – | 1.104 | 1.016 | 0.953 | –
101.33 kPa, x1 = 0.8014 | – | 1.309 | 1.199 | 1.106 | –
101.33 kPa, x1 = 0.9008 | – | 1.58 | 1.44 | 1.322 | –

O=C1CCCCC1 + CCCCCC
viscosity [mPa·s]
Details | 298.15 K | 303.15 K | 308.15 K
101 kPa, x1 = 0.0863 | 0.364 | – | –
101 kPa, x1 = 0.2109 | 0.421 | – | –
101 kPa, x1 = 0.3038 | 0.474 | – | –
101 kPa, x1 = 0.4007 | 0.542 | – | –
101 kPa, x1 = 0.463 | 0.598 | – | –
101 kPa, x1 = 0.6023 | 0.773 | – | –
101 kPa, x1 = 0.6701 | 0.833 | – | –
101 kPa, x1 = 0.7991 | 1.185 | – | –
101 kPa, x1 = 0.872 | 1.398 | – | –
101.33 kPa, x1 = 0.1011 | 0.335 | 0.318 | 0.305
101.33 kPa, x1 = 0.2012 | 0.381 | 0.361 | 0.343
101.33 kPa, x1 = 0.3052 | 0.445 | 0.418 | 0.396
101.33 kPa, x1 = 0.4029 | 0.514 | 0.483 | 0.458
101.33 kPa, x1 = 0.5011 | 0.607 | 0.57 | 0.537
101.33 kPa, x1 = 0.6043 | 0.732 | 0.684 | 0.641
101.33 kPa, x1 = 0.7032 | 0.898 | 0.834 | 0.779
101.33 kPa, x1 = 0.8003 | 1.131 | 1.033 | 0.961
101.33 kPa, x1 = 0.8989 | 1.441 | 1.322 | 1.22

O=C1CCCCC1 + COc1ccccc1
viscosity [mPa·s], 101.33 kPa
Details | x1 = 0.1002 | x1 = 0.2031 | x1 = 0.303 | x1 = 0.402 | x1 = 0.5032 | x1 = 0.6017 | x1 = 0.7 | x1 = 0.7976 | x1 = 0.8978
298.15 K | 1.048 | 1.096 | 1.131 | 1.194 | 1.245 | 1.331 | 1.44 | 1.558 | 1.732
303.15 K | 0.968 | 1.004 | 1.044 | 1.092 | 1.151 | 1.22 | 1.304 | 1.421 | 1.578
308.15 K | 0.905 | 0.93 | 0.966 | 1.012 | 1.06 | 1.127 | 1.207 | 1.306 | 1.444
